Reference: patent publication US12673927B2, “Substituted aminothiazoles as DGKzeta inhibitors for immune activation” (Deutsches Krebsforschungszentrum, priority 2020, dated 2026)

molecular target: T1, human DGKζ (Homo sapiens, UniProt Q13574); assay: Human DGKζ kinase activity inhibition assay (ADP-Glo); assay type: biochemical; settings: intermediates (lacking the R2 side chain; comparative); highest test concentration 20 μM; read-out: IC50 values of intermediates in in vitro human DGKζ kinase activity inhibition assays
T1 construct: made in house; host or cells: Sf9 insect cells, baculovirus
T1 sequence (Q13574 with tags, fused parts or gaps): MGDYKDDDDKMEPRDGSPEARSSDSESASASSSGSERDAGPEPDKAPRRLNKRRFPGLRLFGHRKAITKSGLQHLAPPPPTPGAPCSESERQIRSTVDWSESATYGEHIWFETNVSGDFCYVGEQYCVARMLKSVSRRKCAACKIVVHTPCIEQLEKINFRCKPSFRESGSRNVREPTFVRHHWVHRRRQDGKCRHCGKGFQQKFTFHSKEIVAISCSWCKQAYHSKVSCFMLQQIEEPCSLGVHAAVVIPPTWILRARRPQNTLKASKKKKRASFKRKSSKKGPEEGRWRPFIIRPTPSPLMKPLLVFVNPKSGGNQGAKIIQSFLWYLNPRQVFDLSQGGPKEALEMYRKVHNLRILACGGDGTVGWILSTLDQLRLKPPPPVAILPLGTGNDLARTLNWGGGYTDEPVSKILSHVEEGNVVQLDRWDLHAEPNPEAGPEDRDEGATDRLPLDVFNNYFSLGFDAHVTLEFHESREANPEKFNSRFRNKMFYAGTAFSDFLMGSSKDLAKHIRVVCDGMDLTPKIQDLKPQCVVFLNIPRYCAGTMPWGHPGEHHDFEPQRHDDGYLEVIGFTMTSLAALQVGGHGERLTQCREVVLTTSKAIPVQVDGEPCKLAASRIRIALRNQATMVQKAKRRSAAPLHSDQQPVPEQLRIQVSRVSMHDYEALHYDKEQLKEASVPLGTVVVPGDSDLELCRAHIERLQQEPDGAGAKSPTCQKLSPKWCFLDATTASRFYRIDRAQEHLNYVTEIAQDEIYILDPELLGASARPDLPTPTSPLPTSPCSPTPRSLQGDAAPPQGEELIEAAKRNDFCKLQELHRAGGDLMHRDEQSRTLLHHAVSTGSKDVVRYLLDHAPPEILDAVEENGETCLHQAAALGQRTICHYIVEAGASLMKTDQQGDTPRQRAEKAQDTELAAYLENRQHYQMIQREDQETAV
Protocol: Human DGKζ Kinase Activity Inhibition Assay
Human diacylglycerol kinase zeta (DGKζ) inhibitory activity of compounds of the present invention was quantified employing the human DGKζ kinase activity assay as described in the following paragraphs. In essence, the enzyme activity was measured by quantification of the adenosine-di-phosphate (ADP) generated as a co-product of the enzyme reaction via the “ADP-Glo™ Kinase Assay” kit from the company Promega. This detection system works as follows: In a first step the adenosine-tri-phosphate (ATP) not consumed in the kinase reaction is quantitatively converted to cyclic adenosine-mono-phosphate (cAMP) employing an adenylate cyclase (“ADP-Glo-reagent”), then the adenylate cyclase is stopped and the ADP generated in the kinase reaction is converted to ATP, which subsequently generates in a luciferase-based reaction a glow-luminescence signal (“Kinase Detection Reagent”).
C-terminally FLAG-tagged, recombinant full-length human DGKζ (inhouse expressed in baculovirus infected insect cells, purified using anti-Flag pulldown and size exclusion chromatography) was used as enzyme. As an alternative, commercially available enzyme by Carnabio can be used. As substrate for the kinase, 1,2-dioleoyl-sn-glycerol, reconstituted in octyl-β-D-glucopyranoside micelles, was used. […] Subsequently, 22.55 volumes of a 510 mM solution of octyl-β-D-glucopyranoside (Sigma-Aldrich, Cat. #08001-10G) in 50 mM MOPS buffer (pH 7.4) were added, and the mixture was sonicated in an ultrasonic bath for 20 s. Then 35 volumes of 50 mM MOPS buffer (pH 7.4) were added to yield a solution of 0.28 mM 1,2 dioleoyl-sn-glycerol and 200 mM octyl-β-D-glucopyranoside, which was aliquoted, flash-frozen in liquid nitrogen, and stored at −20° C. until use.
For the assay 50 nl of a 100-fold concentrated solution of the test compound in dimethyl sulfoxide (DMSO, Sigma) was pipetted into either a white 1536-well or a white low-volume 384-well microtiter plate (both Greiner Bio-One, Frickenhausen, Germany). […] The concentration of DGKζ was adjusted depending of the activity of the enzyme lot and was chosen appropriate to have the assay in the linear range, a typical concentration is about 0.1 nM. The reaction was stopped by the addition of 2.5 μL of “ADP-Glo-reagent” (1 to 1.5 diluted with water) and the resulting mixture was incubated at 22° C. for 1 h to convert the ATP not consumed in the kinase reaction completely to cAMP. Subsequently 2.5 μl of the “kinase detection reagent” (1.2 fold more concentrated than recommended by the producer) were added, the resulting mixture was incubated at 22° C. for 1 h and then the luminescence measured with a suitable measurement instrument (e.g. Viewlux™ from Perkin-Elmer). The amount of emitted light was taken as a measure for the amount of ADP generated and thereby for the activity of the DGKζ.
The data were normalised (enzyme reaction without inhibitor=0% inhibition, all other assay components but no enzyme=100% inhibition).

| IC50 | SMILES |
| --- | --- |
| > 20000 nM | Nc1nc(Nc2ccc(F)cc2)sc1C(=O)c1ccccc1 [Example 62] |

same assay, conditions: recombinant full-length human DGKζ, 55 μM ATP, 7 μM 1,2-dioleoyl-sn-glycerol, 20 min at 22° C.; read-out: IC50 in vitro human DGKζ kinase activity inhibition assay

| SMILES | IC50 |
| --- | --- |
| CC(C(N)=O)N(c1nc(N)c(C(=O)c2ccccc2)s1)c1ccccc1F (single isomer, unassigned) [Example 75.2, 2-(N-(4-amino-5-benzoyl-thiazol-2-yl)-2-fluoro-anilino)propanamide] | 214 nM |
| CC(C(N)=O)N(c1ccc(F)cc1)c1nc(N)c(C(=O)c2ccc(OCC(=O)NCCN3CCCCC3)cc2)s1 (single isomer, unassigned) [Example 148, 2-(N-[4-amino-5-[4-[2-oxo-2-[2-(1-piperidyl)ethylamino]ethoxy]benzoyl]thiazol-2-yl]-4-fluoro-anilino)propanamide] | 76.4 nM |

Continued, values first:

| IC50 | SMILES |
| --- | --- |
| 34 nM | COc1ccc(C(=O)c2sc(N(c3ccc(F)cc3)C(C)C(N)=O)nc2C)cc1 (single isomer, unassigned) [Example 176.1, 2-(4-fluoro-N-[5-(4-methoxybenzoyl)-4-methyl-thiazol-2-yl]anilino)propanamide] |
| 985 nM | Cc1ccc(C(=O)c2sc(N(CC(N)=O)c3ccc(F)cc3)nc2N)cc1 (racemic) [Example 72] |
| 7.37 nM | CC(C(N)=O)N(c1ccc(F)cc1)c1nc(N)c(C(=O)c2ccc(Cl)cc2)s1 (single isomer, unassigned) [Example 38.2, 2-(N-[4-amino-5-(4-chlorobenzoyl)thiazol-2-yl]-4-fluoro-anilino)propanamide] |
